Where a SMILES comes first, the peptide text is derived from it. Bridges are numbered along the chain shown (N, C = ends). Roman numbers before positions name the chains, in order.
How the values were obtained:
[1] = tested on: ovarian cancer cell line ID8; test: Survival of mice implanted with ID8 cells; assay type: in vivo, C57Bl/6 mice
Method: Tumors were allowed to progress for 45 days before the animal were injected with svD2 every other day.
Female C57Bl/6 mice were implanted with ID8 cells. After allowing the cell to develop into tumors for 45 days, the animals received injections of svD2 every other day at a dose of 1 nmol/g body weight or 0.1 nmol/g body weight. Accumulation of ascites was monitored by weight of the animals as the result of expansion of the peritoneal cavity. […] Table 3 summarizes the survival data including a treatment with paclitaxel, which is a standard-of-care chemotherapeutic drug. The animals were given paclitaxel at a dose of 18 mg/kg body weight on days 45, 47 and 49 of the experiment.

[2] = Solubility of the polypeptide; assay type: physicochemical
Source text: svD2 in lyophilized form is a white fluffy powder using trifluoroacetate (TFA) or acetate as a counterion. Net polypeptide content with and without the counter ion was approximately 88% and 73%, respectively. The remainder was likely water of hydration of the highly polar polypeptide. Solubility of the polypeptide in water is high. In the preparation of aqueous pharmaceutical compositions of the polypeptide with any of the pharmaceutically acceptable carriers described above, concentrations of the polypeptide in isotonic saline of 10 mM, and possibly somewhat higher, can be readily achieved. According to representative embodiments, therefore, the polypeptide is administered to a subject suffering from cancer in an aqueous pharmaceutical composition having a polypeptide concentration generally from about 0.1 mM to about 10 mM, typically from about 0.1 mM to about 5 mM, and a pharmaceutically acceptable carrier.

[3] = tested on: Human peripheral blood mononuclear cells; test: Cytokine release by human PBMCs (cytokine antibody array); assay type: cell-based; conditions: 4-hour treatment, svD2 100 nM
Method: The polypeptide svD2, synthesized in Example 1 above, was evaluated in terms of a number of biological activities thought to correlate with its effectiveness against cancer.

human PBMC cultures = test: Phagocytosis of opsonized microspheres in human PBMC cultures; assay type: cell-based; conditions: for Beads/cell (mean ± SD): treated 20 h (50 nM svD2 or 100 ng/mL IFNγ), challenged 1 h with microspheres opsonized with rabbit antiserum, 15 cells
Method: Whether the peptide svD2 stimulates phagocytosis was studied in the human PBMC cultures. The cells were treated 20 h with vehicle (phosphate-buffered saline, PBS), 50 nM svD2 or 100 ng/mL IFNγ, and then challenged 1 h with microspheres. Cells were fixed with 2% formalin and washed with PBS. Beads in each cell were counted on microscope images, with 15 cells analyzed for each treatment.

peritoneal cells = test: Response of peritoneal cells in mice (flow cytometry); assay type: in vivo; conditions: C57BL/6 mice
Method: The number of cells is indicated as a ratio of the total number of each cell type normalized to the number of cells in untreated control samples.
To examine whether svD2 effectively stimulates the immune system in vivo, the peptide was injected subcutaneously on alternate days into Th1-poised C57BL/6 strain mice at a dose of 1 μmole/kg.

[4] = paclitaxel 18 mg/kg on days 45, 47 and 49
[5] = svD2 0.1 nmol/g every other day from day 45
[6] = svD2 1 nmol/g every other day from day 45

In the case of CC(=O)O[C@H]1C(=O)[C@@]2(C)[C@H]([C@H](OC(=O)c3ccccc3)[C@]3(O)C[C@H](OC(=O)[C@H](O)[C@@H](NC(=O)c4ccccc4)c4ccccc4)C(C)=C1C3(C)C)[C@]1(OC(C)=O)CO[C@@H]1C[C@@H]2O [Paclitaxel, paclitaxel, reference compound], the “Mean survival” value [1, 4] is reported as 81.5 days and the Number of deaths [1, 4] is reported as 10.

For CC(C)[C@H](N)C(=O)N[C@@H](CO)C(=O)N[C@@H](CC(N)=O)C(=O)N[C@@H](CCC(N)=O)C(=O)N[C@@H](Cc1c[nH]cn1)C(=O)NCC(=O)NCC(=O)NCC(=O)N[C@@H](CO)C(=O)NCCCC[C@H](NC(=O)[C@H](CO)NC(=O)CNC(=O)CNC(=O)CNC(=O)[C@H](Cc1c[nH]cn1)NC(=O)[C@H](CCC(N)=O)NC(=O)[C@H](CC(N)=O)NC(=O)[C@H](CO)NC(=O)[C@@H](N)C(C)C)C(=O)NCCCC[C@H](NC(=O)[C@H](CCCCNC(=O)[C@H](CO)NC(=O)CNC(=O)CNC(=O)CNC(=O)[C@H](Cc1c[nH]cn1)NC(=O)[C@H](CCC(N)=O)NC(=O)[C@H](CC(N)=O)NC(=O)[C@H](CO)NC(=O)[C@@H](N)C(C)C)NC(=O)[C@H](CO)NC(=O)CNC(=O)CNC(=O)CNC(=O)[C@H](Cc1c[nH]cn1)NC(=O)[C@H](CCC(N)=O)NC(=O)[C@H](CC(N)=O)NC(=O)[C@H](CO)NC(=O)[C@@H](N)C(C)C)C(N)=O [svD2, [(VSNQHGGGS)2K]2K-NH2] (I: H-VSNQHGGGSKK-NH2 / II: H-VSNQHGGGSK / III: H-VSNQHGGGS / IV: H-VSNQHGGGS; amide I:10-IV:C, I:11-II:C, II:10-III:C; N-terminus assumed), the “Survival rate of mice implanted with ID8 cells” value ([1]; both doses, 1 nmol/g and 0.1 nmol/g body weight) was “improved the survival rate”, the “Mean survival” value [1, 5] was 74.5 days and the Number of deaths [1, 5] was 4. The “Mean survival” value [1, 6] was 74 days, the Number of deaths [1, 6] was 4 and the solubility ([2]; isotonic saline, saline or isotonic, read-out: Achievable concentration in isotonic saline) was at least 10 mM. The Solubility in water ([2]; water) was “high”, the “Relative level of Eotaxin released” value [3] was 47 and the “Relative level of Eotaxin-2 released” value [3] was 470. The “Relative level of GM-CSF released” value [3] was 96, the “Relative level of ICAM-1 released” value [3] was 70 and the “Relative level of IFNγ released” value [3] was 170. The “Relative level of IL-1a released” value [3] was 322, the “Relative level of IL-12p70 released” value [3] was 117 and the “Relative level of IL-15 released” value [3] was 137. The “Relative level of IL-17 released” value [3] was 21, the “Relative level of IL-21 released” value [3] was 130 and the “Relative level of IP-10 released” value [3] was 377. For the same molecule, the “Relative level of MCP-2 released” value [3] was 97, the “Relative level of MIG released” value [3] was 94 and the “Relative level of PDGF-BB released” value [3] was 82. The “Relative level of TIMP-2 released” value [3] was 285, the “Relative level of TNF-α released” value [3] was 138 and the “Relative level of TNF-β released” value [3] was 93. The “Toxicity in treated mice” value (Toxicity in vivo) was “No evidence of toxicity”, the “Stimulation of phagocytic cells” value (human PBMC cultures; human PBMC cultures, 50 nM svD2, 20 h) was “does not significantly stimulate phagocytic cells” and the “Beads/cell (mean ± SD)” value (human PBMC cultures) was 1.3 ± 1.8 Beads/cell. The “Memory B cells in the peritoneal cavity” value (peritoneal cells; 1 nmole/g doses, flow cytometry 24 hours after each injection) was “increase in memory B cells”, the “Mature immune cells in peritoneal cells” value (peritoneal cells; 1 μmole/kg subcutaneously on alternate days, 24 hours after the second injection) was “several-fold increases” and the “Changes in mature cell populations (CD3, CD8, NK1.1, CD19, CD69)” value (peritoneal cells; 1 μmole/kg subcutaneously, 24 hours after the first injection) was “small”.

B1: IFNγ: cytokine used as comparator treatment, 100 ng/mL in phagocytosis test (protein, UniProt P01579 24-161, looked up)
Interferon gamma: QDPYVKEAENLKKYFNAGHSDVADNGTLFLGILKNWKEESDRKIMQSQIVSFYFKLFKNFKDDQSIQKSVETIKEDMNVKFFNSNKKKRDDFEKLTNYSVTDLNVQRKAIHELIQVMAELSPAAKTGKRKRSQMLFRG
In the case of B1, the “Relative level of IL-21 released” value [3] is reported as “(IFNγ, 100)” and the “Beads/cell (mean ± SD)” value (human PBMC cultures) is reported as 35.8 ± 12.6 Beads/cell.

Source: patent publication US9981044B2, “Activation of adaptive immune processes for the treatment of cancers and infectious diseases” (Susavion Biosciences, Inc., priority 2014, dated 2018)
